These results are taken from US12378220B2, “WNT signaling pathway inhibitors for treatments of disease” (University of Maryland, Baltimore, priority 2016, dated 2025).

This experiment relates to Wnt/β-catenin pathway. Put plainly: dual-luciferase TCF/LEF reporter assay, LiCl-activated, HEK293 cells. The class given is cell-based. How it is done:
Lithium chloride (LiCl), which has been previously established as an activator of the Wnt/β-catenin pathway through its direct and indirect effects on GSK3β was used for pathway activation. The inhibition of the Wnt/β-catenin pathway by a compound may be determined after its incubation with cells for 24 hours.
The assay provided herein is a dual-luciferase assay to measure Wnt/β-catenin pathway activation using a TCF/LEF responsive reporter construct similar to that described previously (Thorne et al., 2010).

Setting [1] is: Homo sapiens, HEK293, 24 h, At 1 μM concentration, remaining Wnt signaling activity, read-out: RLU % (Relative Light Units in reporter gene assays).
Setting [2] is: Homo sapiens, HEK293, Table 3, values in nM, read-out: IC50.
[3] abbreviates: Homo sapiens, HEK293, Table 6, read-out: IC50 (nM) or remaining activity at 1 μM: IC50.
Setting [4] is: Homo sapiens, HEK293, Table 5, read-out: IC50 (nM) or remaining activity at 1 μM: IC50.
Setting [5] is: Homo sapiens, HEK293, Table 3, values in μM, read-out: IC50.
Setting [6] is: Homo sapiens, HEK293, Table 4, @ 1 μM, read-out: IC50 (nM) or remaining activity at 1 μM: remaining activity.

Read-outs that look alike come from different tables or passages of the source.

In the case of `CC(C)c1c(C(=O)Nc2ccc3ccccc3n2)nnn1-c1ccccc1F` [Compound 46, 1-(2-Fluorophenyl)-5-isopropyl-N-(quinolin-2-yl)-1H-1,2,3-triazole-4-carboxamide], the IC50 (in general, the point on the concentration scale where inhibition reaches its midpoint) (Table 7, read-out: IC50) turned out to be 177 nM.

On to `Cc1ccccc1-n1nnc(C(=O)Nc2nc3ccccc3s2)c1C` [YW1132, N-(benzo[d]thiazol-2-yl)-5-methyl-1-(o-tolyl)-1H-1,2,3-triazole-4-carboxamide], for which the activity at 1 µM under setting [1] turned out to be 4.9%. Besides, the IC50 under setting [2] is 34 nM.

In the case of `Cc1ccc(-n2nnc(C(=O)Nc3ccc4ccccc4n3)c2C)c(C)c1` [Compound 32, 1-(2,4-Dimethylphenyl)-5-methyl-N-(quinolin-2-yl)-1H-1,2,3-triazole-4-carboxamide], the IC50 under setting [3] turned out to be 130 nM.

Turning to `Cc1c(C(=O)Nc2ccc3ccccc3n2)nnn1-c1ccccc1C(N)=O` [Compound 40, 1-(2-Carbamoylphenyl)-5-methyl-N-(quinolin-2-yl)-1H-1,2,3-triazole-4-carboxamide], under setting [3], the IC50 is above 100000 nM.

`Cc1c(C(=O)Nc2ccc3ccccc3n2)nnn1-c1ccccc1F` [Compound 33, 1-(2-Fluorophenyl)-5-methyl-N-(quinolin-2-yl)-1H-1,2,3-triazole-4-carboxamide]: the IC50 under setting [3] was found to be 6.5 nM.

Consider `Cc1ccc(-n2c(C)cc(C(=O)Nc3nc(-c4ccccc4)cs3)c2C)cc1` [YW1114, 2,5-Dimethyl-N-(4-phenylthiazol-2-yl)-1-(p-tolyl)-1H-pyrrole-3-carboxamide], for which the activity at 1 µM under setting [1] is 34.6%. The IC50 under setting [2] was 379 nM.

Take `Cc1ccc(-n2nnc(C(=O)NCc3ccccn3)c2C)cc1` [YW1121, 5-Methyl-N-(pyridin-2-ylmethyl)-1-(p-tolyl)-1H-1,2,3-triazole-4-carboxamide]: the activity at 1 µM under setting [1] stood at 92.1%.

Take `Cc1ccc(-n2nnc(C(=O)Nc3nc(-c4ccccc4)c(-c4ccccc4)s3)c2C)cc1` [Compound 22, N-(4,5-diphenylthiazol-2-yl)-5-methyl-1-(p-tolyl)-1H-1,2,3-triazole-4-carboxamide]: under setting [4], the concentration for half-maximal inhibition (IC50) stood at 1000 nM.

For the compound `Cc1ccccc1-n1nnc(C(=O)Nc2ccc3ccccc3n2)c1C` [Compound 28, 5-Methyl-N-(quinolin-2-yl)-1-(o-tolyl)-1H-1,2,3-triazole-4-carboxamide], the IC50 under setting [3] worked out at 6.3 nM.

As for `Cc1ccccc1-n1nnc(C(=O)Nc2nc(-c3ccccc3)cs2)c1C` [YW1183, 5-Methyl-N-(4-phenylthiazol-2-yl)-1-(o-tolyl)-1H-1,2,3-triazole-4-carboxamide], the activity at 1 µM under setting [1] was determined as 90.8%. Moreover, the 50% inhibitory concentration (IC50) under setting [5] was 22000 nM.

As for `Cc1ccc(-n2nnc(C(=O)Nc3ccc4c(=O)cc(C)oc4c3)c2C)cc1` [Compound 26, 5-Methyl-N-(2-methyl-4-oxo-4H-chromen-7-yl)-1-(p-tolyl)-1H-1,2,3-triazole-4-carboxamide], under setting [4], the IC50 is above 1000 nM.

`Cc1ccc(-n2c(C)cc(C(=O)NCc3ccccc3)c2C)cc1` [Compound 17, N-benzyl-2,5-dimethyl-1-(p-tolyl)-1H-pyrrole-3-carboxamide]: the activity at 1 µM under setting [6] worked out at 93%.

Consider `Cc1c(C(=O)Nc2ccc3ccccc3n2)nnn1-c1ccccc1-c1ccccc1` [Compound 38, 1-([1,1′-biphenyl]-2-yl)-5-methyl-N-(quinolin-2-yl)-1H-1,2,3-triazole-4-carboxamide], for which the IC50 under setting [3] came out at 52000 nM.

Regarding `Cc1c(C(=O)Nc2ccc3ccccc3n2)nnn1-c1ccc(F)cc1[N+](=O)[O-]` [Compound 41, 1-(4-Fluoro-2-nitrophenyl)-5-methyl-N-(quinolin-2-yl)-1H-1,2,3-triazole-4-carboxamide], the IC50 under setting [3] amounted to 5000 nM.

As for `Cc1c(C(=O)Nc2ccc3ccccc3n2)nnn1-c1cccc2ccccc12` [Compound 43, 5-Methyl-1-(naphthalen-1-yl)-N-(quinolin-2-yl)-1H-1,2,3-triazole-4-carboxamide], under setting [3], the IC50 came to 4000 nM.

Turning to `Cc1ccc(-n2nnc(C(=O)Nc3ccccn3)c2C)cc1` [YW1119, 5-Methyl-N-(pyridin-2-yl)-1-(p-tolyl)-1H-1,2,3-triazole-4-carboxamide], the activity at 1 µM under setting [1] is 106%.

As to `Cc1c(C(=O)Nc2ccc3ccccc3n2)nnn1-c1cccc(Cl)c1` [YW1173, 1-(3-Chlorophenyl)-5-methyl-N-(quinolin-2-yl)-1H-1,2,3-triazole-4-carboxamide], the activity at 1 µM under setting [1] was 26.3%. Also, under setting [2], the IC50 worked out at 731 nM.

Take `Cc1c(C(=O)Nc2ccc3ccccc3n2)nnn1-c1ccccc1Br` [Compound 36, 1-(2-Bromophenyl)-5-methyl-N-(quinolin-2-yl)-1H-1,2,3-triazole-4-carboxamide]: the IC50 under setting [3] is 10 nM.

Take `Cc1ccc(-n2nnc(C(=O)Nc3ccccn3)c2C)cc1` [Compound 20, 5-Methyl-N-(pyridin-2-yl)-1-(p-tolyl)-1H-1,2,3-triazole-4-carboxamide]: the activity at 1 µM (Homo sapiens, HEK293, Table 5, @ 1 μM, read-out: IC50 (nM) or remaining activity at 1 μM: remaining activity) worked out at 100%.

As to `Cc1ccc(-n2c(C)cc(C(=O)Nc3ccccn3)c2C)cc1` [YW1109, 2,5-Dimethyl-N-(pyridin-2-yl)-1-(p-tolyl)-1H-pyrrole-3-carboxamide], under setting [1], the activity at 1 µM was 79.8%.

For the compound `Cc1ccccc1-n1nnc(C(=O)Nc2nc3ccccc3s2)c1C` [Compound 29, N-(benzo[d]thiazol-2-yl)-5-methyl-1-(o-tolyl)-1H-1,2,3-triazole-4-carboxamide], under “Table 7, read-out: IC50”, the IC50 came to 34 nM.

As for `Cc1ccc(-n2nnc(C(=O)Nc3ccc4ccccc4n3)c2C)cc1` [YW1127, 5-Methyl-N-(quinolin-2-yl)-1-(p-tolyl)-1H-1,2,3-triazole-4-carboxamide], the activity at 1 µM under setting [1] amounted to 56.4%.

In the case of `Cc1ccc(-n2c(C)cc(C(=O)Nc3nc(-c4ccccc4)cs3)c2C)cc1` [Compound 16, 2,5-dimethyl-N-(4-phenylthiazol-2-yl)-1-(p-tolyl)-1H-pyrrole-3-carboxamide], the IC50 (Homo sapiens, HEK293, Table 4, LiCl-mediated WNT signaling, read-out: IC50 (nM) or remaining activity at 1 μM: IC50) came out at 379 nM.

As to `Cc1c(C(=O)Nc2ccc3ccccc3n2)nnn1-c1ccccc1F` [YW1159, 1-(2-Fluorophenyl)-5-methyl-N-(quinolin-2-yl)-1H-1,2,3-triazole-4-carboxamide], under setting [1], the activity at 1 µM was determined as 1.4%. Also, the IC50 under setting [2] was found to be 6.5 nM.

Take `CCc1c(C(=O)Nc2ccc3ccccc3n2)nnn1-c1ccccc1F` [YW2018, 5-Ethyl-1-(2-fluorophenyl)-N-(quinolin-2-yl)-1H-1,2,3-triazole-4-carboxamide]: the activity at 1 µM under setting [1] is 2.3%. The IC50 under setting [2] was found to be 47 nM.

Regarding `Cc1ccc(-n2c(C)cc(C(=O)NCc3ccccc3)c2C)cc1` [YW1104, N-Benzyl-2,5-dimethyl-1-(p-tolyl)-1H-pyrrole-3-carboxamide], the activity at 1 µM under setting [1] amounted to 92.9%. Further, the half-inhibitory concentration (IC50) under setting [5] is 49000 nM.

Consider `Cc1ccc(-n2nnc(C(=O)NCc3ccccn3)c2C)cc1` [Compound 25, 5-Methyl-N-(pyridin-2-ylmethyl)-1-(p-tolyl)-1H-1,2,3-triazole-4-carboxamide], for which, under setting [4], the IC50 is above 1000 nM.

In the case of `Cc1ccc(-n2nnc(C(=O)Nc3ccc4c(=O)cc(C)oc4c3)c2C)cc1` [YW1123, 5-Methyl-N-(2-methyl-4-oxo-4H-chromen-7-yl)-1-(p-tolyl)-1H-1,2,3-triazole-4-carboxamide], under setting [1], the activity at 1 µM amounted to 87.6%.

For `Cc1ccc(-n2nnc(C(=O)Nc3cc(C)no3)c2C)cc1` [Compound 24, 5-Methyl-N-(3-methylisoxazol-5-yl)-1-(p-tolyl)-1H-1,2,3-triazole-4-carboxamide], under setting [4], the IC50 was found to be 48000 nM.

With `Cc1ccc(-n2nnc(C(=O)Nc3ccc4ccccc4n3)c2C)cc1` [Compound 27, 5-Methyl-N-(quinolin-2-yl)-1-(p-tolyl)-1H-1,2,3-triazole-4-carboxamide], the activity at 1 µM (Homo sapiens, HEK293, Table 6, @ 1 μM, read-out: IC50 (nM) or remaining activity at 1 μM: remaining activity) was 56.4 ± 2%.

`Cc1c(C(=O)Nc2ccc3ccccc3n2)nnn1-c1cccc2ccccc12` [YW1151, 5-Methyl-1-(naphthalen-1-yl)-N-(quinolin-2-yl)-1H-1,2,3-triazole-4-carboxamide]: the activity at 1 µM under setting [1] is 79.3%. In addition, under setting [5], the IC50 was determined as 4000 nM.

On to `Cc1ccccc1-n1nnc(C(=O)Nc2ccc3ccccc3c2)c1C` [YW1130, 5-Methyl-N-(naphthalen-2-yl)-1-(o-tolyl)-1H-1,2,3-triazole-4-carboxamide], for which the activity at 1 µM under setting [1] amounted to 19.7%. Also, the 50% inhibitory concentration (IC50) under setting [2] stood at 471 nM.

Take `Cc1ccc(-n2c(C)cc(C(=O)Nc3ccccn3)c2C)cc1` [Compound 14, 2,5-dimethyl-N-(pyridin-2-yl)-1-(p-tolyl)-1H-pyrrole-3-carboxamide]: the activity at 1 µM under setting [6] was found to be 79.8%.

Regarding `CCc1c(C(=O)Nc2ccc3ccccc3n2)nnn1-c1ccccc1F` [Compound 45, 5-Ethyl-1-(2-fluorophenyl)-N-(quinolin-2-yl)-1H-1,2,3-triazole-4-carboxamide], the IC50 (Table 7, read-out: IC50) came out at 47 nM.

As for `Cc1c(C(=O)Nc2ccc3ccccc3n2)nnn1-c1ccccc1-c1ccccc1` [YW1180, 1-([1,1′-biphenyl]-2-yl)-5-methyl-N-(quinolin-2-yl)-1H-1,2,3-triazole-4-carboxamide], under setting [1], the activity at 1 µM was 104%. The IC50 under setting [5] was determined as 52000 nM.

With `CC(=O)c1ccccc1-n1nnc(C(=O)Nc2ccc3ccccc3n2)c1C` [YW1181, 1-(2-Acetylphenyl)-5-methyl-N-(quinolin-2-yl)-1H-1,2,3-triazole-4-carboxamide], the activity at 1 µM under setting [1] amounted to 18.1%. In addition, the IC50 under setting [2] came to 814 nM.
